We go through 20 compounds from patent US20030049204A1, “Individualization of therapy with gastroesophageal reflux disease agents” (McGill University, priority 2001, published 2003).

The test system of one data set is 1X-Ab. The data set can be described thus: Competitive antigen ELISA, cross-reactivity of 1X-Ab. Format: binding, rabbit. As to conditions: 0 = absence of inhibition or inhibition no higher than 40% at highest concentration tested (5 × 10^−3 M). As to the method: (§1) Four mature females New Zealand white rabbits (Charles River Canada, St-Constant, Que., Canada) are used for antibody production. The protocol employed in this study was approved by the McGill University Animal Care Committee in accordance with the guidelines from the Canadian Council on Animal Care. Antibodies of the present invention may be monoclonal or polyclonal antibodies.
(§2) A 0.5 mL aliquot of the emulsion ([…] of antigen) is injected per rabbit intramuscularly or subcutaneously. Rabbits are subsequently boosted at intervals of three weeks with […] of antigen emulsified in incomplete Freund's adjuvant. […] Antisera are stored at 4° C. in the presence of 0.01% sodium azide.
(§3) Buffers and water without additives are filtered through millipore filters and kept for 1 week. BSA, antibodies, Tween™ 20 and horse radish peroxidase conjugates are added to these buffers and water just prior to use. Urine samples are usually collected 4 hours after drinking a cup of coffee (instant or brewed with approximately 100 mg of caffeine per cup) and stored at −80° C. The urine samples are diluted 10 times with sodium phosphate buffer (620 mosm, pH 7.50) and are subsequently diluted with water to give concentrations of AAMU and 1X no higher than 3×10^−6 M in the ELISA. All the pipettings are done with an eight-channel pipette, except those of the antibody and sample solutions. Starting with the last well, 100 μL of a carbonate buffer (100 mM, pH 9.6) containing 2.5 μg mL-^1 antibodies are added to each well. After 90 min. at room temperature, the wells are washed three times with 100 mL of TPB: isotonic sodium phosphate buffer (310 mosm, pH 7.50) containing 0.05% Tween™ 20.
(§4) After the initial wash, unoccupied sites are blocked by incubation for 90 min. at room temperature with 100 μL TBP containing 3% BSA. The wells are washed four times with 100 μL TPB. […] The microplate is gently shaken with an orbital shaker at room temperature for 3-4 hours. The wells are washed three times with 100 μL TPB containing 1% BSA and three times with water containing 0.05% Tween™ 20. To the washed plate is added 150 μL of a substrate buffer composed of citric acid (25 mM) and sodium phosphate dibasic buffer (50 mM, pH 5.0) containing 0.06% hydrogen peroxide and 0.04% o-phenylenediamine hydrochloride.
as §3, with “were” for “are”, “They were” for “The urine samples are”, “mL^−1” for “mL-^1”, “was pipetted.” for “are added to each well.”, “μL” for “mL”
(§5) After the initial wash, unoccupied sites were blocked by incubation for 90 min. at room temperature with 100 μL TBP containing 3% BSA. The wells were washed four times with 100 μL TPB. […] The microplate was gently shaken with an orbital shaker at room temperature for 3-4 hours. The wells were washed three times with 100 μL with TPB containing 1% BSA and three times with water containing 0.05% Tween™ 20. To the washed plate was added 150 μL of a substrate buffer composed of citric acid (25 mM) and sodium phosphate dibasic buffer (50 mM, pH 5.0) containing 0.06% hydrogen peroxide and 0.04% o-phenylenediamine hydrochloride.
For orientation: In an ELISA, binding on a coated surface is turned into a signal by an enzyme label.

The next data set relates to AAMU-Ab. The data set can be described thus: Competitive antigen ELISA, cross-reactivity of AAMU-Ab. In kind it is binding, rabbit. The note with it: 0 = absence of inhibition or inhibition no higher than 40% at highest concentration tested (5 × 10^−3 M). Here is the method:
as §1, §2, §3, §4
as §3, with “were” for “are”, “They were” for “The urine samples are”, “mL^−1” for “mL-^1”, “was pipetted.” for “are added to each well.”, “μL” for “mL”
as §5

The conditions of data set [1]: cited from earlier work.
Data set [2] deals with T1, rapid component of the delayed rectifying K^+ current (lkr) (Oryctolagus cuniculus, UniProt Q8WNY2).
T1 construct: in vitro isolated rabbit Purkinje fibers and ventricular papillary muscle and isolated rabbit ventricular myocyte models; from tissue; host or cells: rabbit Purkinje fibers, ventricular papillary muscle and ventricular myocytes; also anesthetized guinea pig and rabbit in vivo
T1 sequence (Q8WNY2 1-1161): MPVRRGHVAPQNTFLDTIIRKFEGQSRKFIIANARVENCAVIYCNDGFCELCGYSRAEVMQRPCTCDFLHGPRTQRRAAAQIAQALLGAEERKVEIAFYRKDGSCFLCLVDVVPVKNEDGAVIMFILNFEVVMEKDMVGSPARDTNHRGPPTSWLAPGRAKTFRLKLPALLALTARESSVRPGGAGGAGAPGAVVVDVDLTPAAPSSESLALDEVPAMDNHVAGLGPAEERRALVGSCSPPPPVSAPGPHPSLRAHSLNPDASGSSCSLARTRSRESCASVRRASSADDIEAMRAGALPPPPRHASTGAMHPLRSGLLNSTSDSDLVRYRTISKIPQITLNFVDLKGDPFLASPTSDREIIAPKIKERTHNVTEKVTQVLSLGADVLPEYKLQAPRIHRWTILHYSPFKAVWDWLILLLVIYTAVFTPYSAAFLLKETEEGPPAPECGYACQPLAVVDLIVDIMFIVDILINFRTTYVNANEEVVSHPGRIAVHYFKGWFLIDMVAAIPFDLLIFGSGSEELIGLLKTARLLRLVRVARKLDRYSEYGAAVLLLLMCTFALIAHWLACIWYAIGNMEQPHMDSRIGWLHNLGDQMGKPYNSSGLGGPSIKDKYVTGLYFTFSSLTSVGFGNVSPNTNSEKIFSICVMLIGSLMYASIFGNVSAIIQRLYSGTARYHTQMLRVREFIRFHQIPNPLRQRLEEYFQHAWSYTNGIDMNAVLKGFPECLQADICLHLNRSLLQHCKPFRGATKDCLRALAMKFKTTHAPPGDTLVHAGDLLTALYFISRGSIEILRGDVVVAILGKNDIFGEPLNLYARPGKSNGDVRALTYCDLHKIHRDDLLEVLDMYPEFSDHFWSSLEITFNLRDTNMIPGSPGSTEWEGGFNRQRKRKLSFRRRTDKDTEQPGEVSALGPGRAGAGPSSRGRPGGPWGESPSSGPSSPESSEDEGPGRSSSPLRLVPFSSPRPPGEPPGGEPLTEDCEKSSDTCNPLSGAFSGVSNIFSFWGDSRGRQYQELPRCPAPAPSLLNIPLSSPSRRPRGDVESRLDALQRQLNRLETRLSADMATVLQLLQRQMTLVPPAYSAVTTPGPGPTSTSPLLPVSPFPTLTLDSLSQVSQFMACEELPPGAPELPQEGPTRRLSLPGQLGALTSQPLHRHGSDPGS
The note with it: in vivo anesthetized guinea pig and rabbit; in vitro isolated rabbit preparations; cited from earlier work.

The conditions of data set [3]: in vivo; cited from earlier work.
For data set [4] the following is noted: especially less severe degrees of esophagitis; cited from earlier work.
In data set [5] the test system is plasma proteins, mainly albumin. The note with it: cited from earlier work.
Data set [6] addresses serotonin-4 (5-HT4) receptor (Homo sapiens, UniProt Q13639). As to conditions: in vitro; cited from earlier work.
The conditions of data set [7]: cited from earlier work. The source holds these as a separate data set.

Each structure is given as a SMILES string. Where two headings read alike, the source gives them in different places. Marks after values point to notes of the source that are not given here.

Sequence of serotonin-4 (5-HT4) receptor (Q13639 whole entry, species assumed): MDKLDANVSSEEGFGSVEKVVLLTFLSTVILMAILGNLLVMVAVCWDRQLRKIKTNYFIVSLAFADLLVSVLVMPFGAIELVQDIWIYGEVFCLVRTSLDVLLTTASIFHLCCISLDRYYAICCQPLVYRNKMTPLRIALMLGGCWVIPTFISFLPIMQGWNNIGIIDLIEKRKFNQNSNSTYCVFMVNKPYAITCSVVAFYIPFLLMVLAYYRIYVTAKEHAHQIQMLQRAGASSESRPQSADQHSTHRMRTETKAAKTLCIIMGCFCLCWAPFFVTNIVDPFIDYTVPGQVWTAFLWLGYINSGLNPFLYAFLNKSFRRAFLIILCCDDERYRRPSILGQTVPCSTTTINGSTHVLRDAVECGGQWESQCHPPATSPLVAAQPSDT

For `Cn1c(=O)c2c(ncn2C)n(C)c1=O` [1,3,7-Trimethyl Xanthine (Caffeine), 1,3,7-Trimethyl Xanthine], the “% Cross-Reaction 1X-Ab” value in the data set on 1X-Ab turned out to be 0%. In the data set with AAMU-Ab, the “% Cross-Reaction AAMU-Ab” value is reported as 0%.
In the case of `Cn1c(=O)c2[nH]cnc2n(C)c1=O` [1,3-Dimethyl Xanthine (Theophylline), 1,3-Dimethyl Xanthine], the “% Cross-Reaction 1X-Ab” value with 1X-Ab was determined as 0.2%. Besides, the “% Cross-Reaction AAMU-Ab” value in the data set on AAMU-Ab turned out to be 0%.
In the same order, the values of `Cn1c(=O)[nH]c2ncn(C)c2c1=O` [1,7-Dimethyl Xanthine (Paraxanthine), 1,7-Dimethyl Xanthine] are 0.5% and 0%.
`Cn1c(=O)[nH]c2[nH]c(=O)n(C)c2c1=O` [1,7-Dimethyluric acid]: in the data set on 1X-Ab, the “% Cross-Reaction 1X-Ab” value came out at 0%. The “% Cross-Reaction AAMU-Ab” value in the data set with AAMU-Ab came to 0%.
In the case of `Cn1c(=O)[nH]c2nc[nH]c2c1=O` [1-Methyl Xanthine (1X), 1-Methyl Xanthine], the “% Cross-Reaction 1X-Ab” value in the data set with 1X-Ab stood at 100%. The “% Cross-Reaction AAMU-Ab” value in the data set with AAMU-Ab is recorded as 0%.
In the same order, the values of `Cn1c(=O)[nH]c2[nH]c(=O)[nH]c2c1=O` [1-Methyluric acid] are 11% and 0%.
On to `Cn1cnc2c1c(=O)[nH]c(=O)n2C` [3,7-Dimethyl Xanthine (Theobromine), 3,7-Dimethyl Xanthine], for which the “% Cross-Reaction 1X-Ab” value in the data set with 1X-Ab was found to be 0%. Besides, the “% Cross-Reaction AAMU-Ab” value in the data set with AAMU-Ab is listed as 0%.
Turning to `Cn1c(=O)[nH]c(=O)c2[nH]cnc21` [3-Methyl Xanthine], the “% Cross-Reaction 1X-Ab” value with 1X-Ab was determined as 0%. Also, in the data set with AAMU-Ab, the “% Cross-Reaction AAMU-Ab” value is 0%.
Turning to `CC(=O)Nc1c(N)n(C)c(=O)n(C)c1=O` [5-Acetamino-6-amino-1,3-dimethyluracil], in the data set with 1X-Ab, the “% Cross-Reaction 1X-Ab” value was 0%. Moreover, in the data set on AAMU-Ab, the “% Cross-Reaction AAMU-Ab” value worked out at 0%.
For the compound `CC(=O)Nc1c(N)n(C)c(=O)[nH]c1=O` [5-Acetamino-6-amino-1-methyluracil], the “% Cross-Reaction 1X-Ab” value in the data set with 1X-Ab turned out to be 0%. Moreover, the “% Cross-Reaction AAMU-Ab” value with AAMU-Ab amounted to 100%.
Turning to `CC(=O)Nc1c(N)[nH]c(=O)[nH]c1=O` [5-Acetamino-6-amino-uracil], in the data set on 1X-Ab, the “% Cross-Reaction 1X-Ab” value is 0%. For the same compound, the “% Cross-Reaction AAMU-Ab” value in the data set with AAMU-Ab came out at 0.6%.
For the compound `Cn1cnc2[nH]c(=O)[nH]c(=O)c21` [7-Methyl Xanthine], the “% Cross-Reaction 1X-Ab” value in the data set on 1X-Ab amounted to 0%. Further, the “% Cross-Reaction AAMU-Ab” value in the data set with AAMU-Ab amounted to 0%.
Consider `Cc1nc2[nH]c(=O)[nH]c(=O)c2[nH]1` [8-Methyl Xanthine], for which the “% Cross-Reaction 1X-Ab” value in the data set on 1X-Ab is given as 0%. The “% Cross-Reaction AAMU-Ab” value in the data set with AAMU-Ab was determined as 0%.
As to `COc1cc(N)c(Cl)cc1C(=O)NC1CCN(CCCOc2ccc(F)cc2)CC1OC` (centres unmarked) [Cisapride], in data set [1] (following intravenous (IV) administration), the half-life result is “up to 20 hours”. In [1] (in vivo), the absolute bioavailability is given as 35-40%, the plasma clearance entry is given as “about 100 ml/min” and the volume of distribution result is given as “about 180 L”. Moreover, the “unmetabolized drug accounted for in urinary and fecal recovery” value in data set [1] (oral administration) is “less than 10%”. For the same compound, in data set [2], the “effect on cardiac repolarization” value is reported as “prolonged cardiac repolarization without slowing conduction”. In data set [3], the “deaths among reports of heart rhythm abnormalities” value is 80; the “diarrhea, individuals affected” value is “about 10%”; the “reports of heart rhythm abnormalities” value is on record as “at least 341”. Besides, the “long-term control of GERD, individuals” value in [4] was “up to 50%”. Further, the “binding to plasma proteins” value in data set [5] was 97.5-98%. Moreover, the “activity at serotonin-4 (5-HT4) receptor” value in data set [6] was “receptor agonist”.
Consider `Nc1nc2nc[nH]c2c(=O)[nH]1` [Guanine], for which the “% Cross-Reaction 1X-Ab” value with 1X-Ab turned out to be 0%. The “% Cross-Reaction AAMU-Ab” value in the data set with AAMU-Ab is on record as 0%.
For `O=c1[nH]cnc2nc[nH]c12` [Hypoxanthine], the “% Cross-Reaction 1X-Ab” value in the data set on 1X-Ab is 0%. For the same compound, in the data set on AAMU-Ab, the “% Cross-Reaction AAMU-Ab” value is given as 0%.
`O=c1cc[nH]c(=O)[nH]1` [Uracil]: the “% Cross-Reaction 1X-Ab” value in the data set with 1X-Ab came out at 0%. In the data set with AAMU-Ab, the “% Cross-Reaction AAMU-Ab” value was found to be 0%.
For the compound `O=c1[nH]c(=O)c2[nH]c(=O)[nH]c2[nH]1` [Uric acid], the “% Cross-Reaction 1X-Ab” value with 1X-Ab is on record as 0%. For the same compound, the “% Cross-Reaction AAMU-Ab” value with AAMU-Ab is given as 0%.
`O=c1[nH]c(=O)c2[nH]cnc2[nH]1` [Xanthine]: the “% Cross-Reaction 1X-Ab” value in the data set with 1X-Ab was 0%. Also, in the data set on AAMU-Ab, the “% Cross-Reaction AAMU-Ab” value is 0^a %.
In the case of `Nc1ccc(S(=O)(=O)c2ccc(N)cc2)cc1` [dapsone], the adverse reactions is 17% in data set [7] (fast acetylators) and 46% in [7] (slow acetylators).
